Where two headings read alike, the source gives them in different places. Blank lines part the entries; values can stand above or below the compound they belong to.
Experiments:
[1] = Pharmacokinetics assay, dog; format: in vivo, beagle dogs; settings: plasma, iv, Beagle Dog, intravenously 1 mg/kg
From the text: Results are shown in FIG. 1A (IV administration) and FIG. 1B (oral administration), and in Table 2. […] Smaller Vdss in monkeys is correlated with higher plasma protein binding.

human hepatocytes = experiment: In vitro metabolic stability in cryopreserved hepatocytes (human); format: in vitro ADME
Method: In vitro half-life values were determined and scaled to predict hepatic clearance (CLpred) and hepatic extraction using the well-stirred liver model with no correction for plasma protein as described in Obach et al., The Prediction of Human Pharmacokinetic Parameters from Preclinical and In Vitro Metabolism Data, J. of Pharmacology and Experimental Therapeutics, vol. 283, no. 1, pp. 46-58 (1997).

[2] = PK/PD profile, 1 mg/kg oral for 7 consecutive days; format: in vivo; settings: cynomolgus monkeys; for Cmax / Tmax / AUC(0-t): cynomolgus monkey, plasma, po, 1 mg/kg, oral 1 mg/kg daily; for AUC(0-t): read-out: AUC0-24
[3] = system: FXR-regulated gene expression in human HuH7 hepatoma cells; experiment: cells; settings: Huh-7, 11 h
[4] = Multiple once daily dose study: plasma PK and safety; format: in vivo, human
Method: 3 groups of 8 healthy participants were randomized to receive multiple once daily (QD) doses of Compound 2 or matching placebo in a 3:1 ratio for 7 days (1 mg and 4 mg) or 14 days (10 mg). Plasma levels of Compound 2 and PD biomarkers (plasma amine oxidase activity and methylamine levels) were determined at pre-dose and various timepoints post-dose. Safety was assessed for up to 14 days after last dose.

SSAO = target: T1, SSAO (Homo sapiens, UniProt Q16853); experiment: Biochemical activity, SSAO
T1 sequence (Q16853 1-763): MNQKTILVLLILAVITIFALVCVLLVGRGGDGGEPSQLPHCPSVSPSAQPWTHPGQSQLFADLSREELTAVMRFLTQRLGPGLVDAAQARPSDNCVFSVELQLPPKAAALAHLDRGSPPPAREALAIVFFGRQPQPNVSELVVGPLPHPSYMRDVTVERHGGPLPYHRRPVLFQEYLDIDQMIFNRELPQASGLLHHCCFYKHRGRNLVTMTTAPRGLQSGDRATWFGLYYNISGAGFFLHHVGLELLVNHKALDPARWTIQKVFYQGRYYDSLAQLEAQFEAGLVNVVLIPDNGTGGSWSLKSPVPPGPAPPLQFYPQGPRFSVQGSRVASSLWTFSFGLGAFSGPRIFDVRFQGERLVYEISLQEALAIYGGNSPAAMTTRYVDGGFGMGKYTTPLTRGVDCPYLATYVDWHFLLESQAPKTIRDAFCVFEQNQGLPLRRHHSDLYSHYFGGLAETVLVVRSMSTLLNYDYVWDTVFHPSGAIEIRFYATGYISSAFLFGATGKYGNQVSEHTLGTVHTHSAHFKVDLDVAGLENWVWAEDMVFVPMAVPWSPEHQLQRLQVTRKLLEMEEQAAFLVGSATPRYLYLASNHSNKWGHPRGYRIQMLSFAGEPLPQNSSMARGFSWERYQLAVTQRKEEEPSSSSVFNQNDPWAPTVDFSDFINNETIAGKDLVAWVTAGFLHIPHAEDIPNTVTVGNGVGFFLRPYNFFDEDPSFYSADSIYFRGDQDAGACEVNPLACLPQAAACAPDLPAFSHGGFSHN

plasma SSAO = target: T2, plasma SSAO (Homo sapiens, UniProt Q16853); experiment: Single-ascending dose clinical trial: plasma amine oxidase activity and methylamine; format: in vivo
T2 construct: from tissue; host or cells: plasma of healthy participants
T2 sequence (Q16853 27-763 limits assumed): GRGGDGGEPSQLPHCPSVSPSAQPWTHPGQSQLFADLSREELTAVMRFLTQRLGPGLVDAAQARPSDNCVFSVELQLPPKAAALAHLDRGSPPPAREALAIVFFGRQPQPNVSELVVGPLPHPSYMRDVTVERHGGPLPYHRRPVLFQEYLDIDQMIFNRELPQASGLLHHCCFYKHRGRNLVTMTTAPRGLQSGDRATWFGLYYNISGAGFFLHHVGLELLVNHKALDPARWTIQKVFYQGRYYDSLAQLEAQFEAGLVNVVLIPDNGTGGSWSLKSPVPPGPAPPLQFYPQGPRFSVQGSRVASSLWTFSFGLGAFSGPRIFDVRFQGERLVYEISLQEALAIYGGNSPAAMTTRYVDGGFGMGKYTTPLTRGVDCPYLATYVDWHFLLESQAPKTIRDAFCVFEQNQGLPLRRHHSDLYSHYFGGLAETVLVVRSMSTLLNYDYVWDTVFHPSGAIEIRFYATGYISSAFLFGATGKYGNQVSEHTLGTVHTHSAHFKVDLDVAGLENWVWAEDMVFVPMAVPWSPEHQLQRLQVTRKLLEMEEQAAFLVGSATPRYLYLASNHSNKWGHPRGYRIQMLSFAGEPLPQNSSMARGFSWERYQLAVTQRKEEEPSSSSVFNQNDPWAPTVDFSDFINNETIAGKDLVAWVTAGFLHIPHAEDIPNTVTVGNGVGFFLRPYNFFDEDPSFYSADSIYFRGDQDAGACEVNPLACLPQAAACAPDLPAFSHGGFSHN
Method: Safety was assessed for 7 (±3) days after dosing.
Plasma PK parameters were determined by non-compartmental analysis.
SSAO-specific amine oxidase levels in plasma were determined using a kinetic-based assay essentially as described previously (Schilter et al). Endogenous monoamine oxidases A and B were inhibited by adding pargyline to plasma samples prior to measuring H2O2 generation levels in placebo and active recipients. Maximum inhibition was defined by pre-dose (baseline) samples additionally treated with a high dose of Compound 2 and percent changes in SSAO-specific activity were calculated relative to baseline samples.

Structure (SMILES): Cn1cc(C(=O)O)c2ccc(N3CCC(OCc4c(-c5c(Cl)cccc5Cl)noc4C4CC4)CC3)cc21 [Compound 1]
half-life ([1]; read-out: IV Terminal t1/2 (converted)): 5.67 h
Vd ([1]; read-out: Vdss): 1.92 L/kg
Hepatic Extraction (human hepatocytes): 67.0 ± 1.73%
In vitro Metabolic CLpred (human hepatocytes; well-stirred liver model): 13.8 ± 3.67 mL/min/kg
Cmax ([2]; Day 1): 257 ± 124 ng/mL
Tmax ([2]; Day 1): 1.83 ± 1.17 h
AUC(0-t) ([2]; Day 1): 1000 ± 419 ng·h/mL
Cmax ([2]; Day 7): 221 ± 121 ng/mL
Tmax ([2]; Day 7): 1.25 ± 0.61 h
AUC(0-t) ([2]; Day 7): 858 ± 425 ng·h/mL
suppression of the pharmacodynamics biomarker 7AC4 ([2]; 1 mg/kg oral, 7 consecutive days): sustained suppression
EC50 ([3]; read-out: EC50, BSEP Gene induction/HuH7): 40 nM
EC50 ([3]; read-out: EC50, FGF-19 Gene Induction/HuH7): 40 nM
EC50 ([3]; read-out: EC50, SHP Gene induction/HuH7): 50 nM

IC50 (SSAO): 6.5 nM
inhibition of plasma SSAO activity (plasma SSAO; 4 hours post-dose, all dose cohorts (1, 3, 6, 10 mg single dose)): near complete inhibition
duration of continued suppression of plasma SSAO activity (plasma SSAO; after a single dose): up to 1 week
plasma methylamine (plasma SSAO; single dose 1, 3, 6, 10 mg): Dose-dependent increases
Structure (SMILES): COC1CCN(c2ncc(OC/C(=C/F)CN)cn2)CC1 [Compound 2]
plasma PK exposure increases between dose groups ([4]; Day 1, QD 1, 4, 10 mg): greater than dose proportional
half-life versus dose ([4]; QD 1, 4, 10 mg): increased with dose
accumulation after multiple QD doses ([4]; each dose level): significant accumulation
adverse events or laboratory abnormalities ([4]; healthy participants, QD 1 mg and 4 mg for 7 days or 10 mg for 14 days): No clinically relevant adverse events or laboratory abnormalities were reported
time to steady state ([4]; highest dose cohort (10 mg QD)): 7 days
safety and tolerability ([4]; up to 10 mg QD for 14 days): safe and well tolerated

From patent publication US20210379040A1, “COMBINATION TREATMENT OF LIVER DISORDERS” (Terns Pharmaceuticals, Inc., priority 2020, published 2021)
